We go through 14 compounds from ChEMBL document CHEMBL3352654, “Synthesis, biological evaluation and SAR analysis of O-alkylated analogs of quercetin for anticancer” (Bioorg Med Chem Lett, 2014).

Common to all, as to format: functional, cell-based
Assay [1] can be described thus: Anticancer activity against human […] cells by HTS assay.
In a further assay the test system is HeLa. In words: Anticancer activity against human HeLa cells by HTS assay.
A short description of assay [2]: Anticancer activity against human H460 cells by HTS assay. Conditions: NCI-H460.
For the next assay, the system named is HOP-62. In words: Anticancer activity against human HOP62 cells by HTS assay.
Assay [3] in a line: Anticancer activity against human SKBR cells by HTS assay.
A further assay concerns NCI-H1792. As to the kind of experiment: Anticancer activity against human NCI-H1792 cells by HTS assay.
Assay [4] is described as follows: Anticancer activity against human H1299 cells by HTS assay. Particulars: NCI-H1299.
The nature of assay [5]: Anticancer activity against human NCI-H1944 cells by HTS assay.
Another assay deals with NCI-H522. As to the kind of experiment: Anticancer activity against human NCI-H522 cells by HTS assay.
The subject of another assay is M14. In words: Anticancer activity against human M14 cells by HTS assay.
A short description of assay [6]: Anticancer activity against human 292G cells by HTS assay.
For another assay, the system named is A549. In words: Anticancer activity against human A549 cells by HTS assay.
For the next assay, the system named is NCI-H157. In words: Anticancer activity against human NCI-H157 cells by HTS assay.
Assay [7] can be described thus: Anticancer activity against human M4E cells by HTS assay.
Assay [8] in a line: Anticancer activity against human Calu1 cells by HTS assay. Particulars: Calu-1.
Assay [9] in a line: Anticancer activity against human LOXIMVI cells by HTS assay. Conditions: LOX IMVI.

With `CCOc1cc(O)c2c(=O)c(O)c(-c3ccc(OCC)c(O)c3)oc2c1`, the IC50 in assay [1] was 25.5 µM; with HeLa, 20.2 µM; in assay [2], 9.7 µM; in the assay with HOP-62, 30.2 µM; in [3], above 50 µM; in the assay on NCI-H1792, above 50 µM. The half-maximal inhibitory concentration (IC50) was 21.8 µM in assay [4]; 42.4 µM in assay [5]; 7.21 µM in the assay on NCI-H522; above 50 µM in the assay with M14; above 50 µM in assay [6]; 22.6 µM in the assay with A549. Besides, the IC50 with NCI-H157 was above 50 µM; in assay [7], above 50 µM; in assay [8], above 50 µM; in assay [9], 49.4 µM.

In the case of `CCCOc1c(-c2ccc(O)c(O)c2)oc2cc(O)cc(O)c2c1=O`, the half-inhibitory concentration (IC50) is 3.02 µM in assay [1]; 0.57 µM in the assay with HeLa; 1.69 µM in assay [2]; 2.44 µM in the assay with HOP-62; 0.45 µM in assay [3]; 3.13 µM with NCI-H1792. Moreover, the IC50 in assay [4] amounted to 6.03 µM; in assay [5] it was 0.91 µM; in the assay with NCI-H522 it was 1.4 µM; in the assay on M14, 2.26 µM; in assay [6] it was 2.11 µM; in the assay on A549, 0.79 µM. Moreover, the half-maximal inhibitory concentration (IC50) is 0.8 µM with NCI-H157, 1.9 µM in [7], 7.08 µM in [8] and 2.38 µM in assay [9].

As to `CCCOc1cc(O)c2c(=O)c(OCCC)c(-c3ccc(O)c(O)c3)oc2c1`, the half-inhibitory concentration (IC50) was above 50 µM in assay [1]; 47 µM in the assay on HeLa; 31.1 µM in assay [2]; 47.2 µM with HOP-62; 34.5 µM in assay [3]; 30.6 µM in the assay with NCI-H1792. Also, the IC50 in assay [4] was above 50 µM; in assay [5], above 50 µM; in the assay on NCI-H522, above 50 µM; in the assay on M14, above 50 µM; in [6] it was above 50 µM; in the assay on A549, 26.2 µM. Also, the IC50 is 40.9 µM with NCI-H157, above 50 µM in assay [7], 31.9 µM in assay [8] and above 50 µM in [9].

For the compound `COc1cc(O)c2c(=O)c(OC)c(-c3ccc(OC)c(O)c3)oc2c1` [AYANIN], the IC50 in [1] was above 50 µM; with HeLa, 19.5 µM; in [2] it was 12.8 µM; with HOP-62, 20.1 µM; in assay [3] it was 10.8 µM; in the assay with NCI-H1792, above 50 µM. For the same compound, the IC50 in [4] was above 50 µM; in [5], 21.9 µM; in the assay on NCI-H522, 20.2 µM; in the assay on M14 it was 37.1 µM; in [6], above 50 µM; in the assay with A549, 20.8 µM. Also, the concentration for half-maximal inhibition (IC50) in the assay on NCI-H157 was 18.6 µM; in [7] it was 16.2 µM; in [8], above 50 µM; in assay [9], 46 µM.

`CCCOc1cc(O)c2c(=O)c(OCCC)c(-c3ccc(OCCC)c(O)c3)oc2c1`: the IC50 in [1] is above 50 µM; in the assay on HeLa it was 12.9 µM; in assay [2], 28.8 µM; in the assay with HOP-62, 36 µM; in assay [3] it was 12 µM; with NCI-H1792, above 50 µM. The 50% inhibitory concentration (IC50) is 22.8 µM in assay [4]; 4.75 µM in [5]; above 50 µM in the assay with NCI-H522; 34 µM in the assay with M14; above 50 µM in assay [6]; 18.6 µM in the assay with A549. Also, the IC50 in the assay on NCI-H157 is above 50 µM; in assay [7], 48.2 µM; in [8], above 50 µM; in assay [9] it was above 50 µM.

For `COc1cc(O)c2c(=O)c(OC)c(-c3ccc(OC)c(OC)c3)oc2c1` [RETUSIN], the IC50 was above 50 µM in assay [1]; 46.4 µM in the assay on HeLa; above 50 µM in [2]; above 50 µM in the assay with HOP-62; above 50 µM in assay [3]; above 50 µM with NCI-H1792. Moreover, the IC50 in [4] was 10.5 µM; in assay [5], above 50 µM; in the assay on NCI-H522, above 50 µM; in the assay on M14, 0.38 µM; in assay [6], above 50 µM; in the assay with A549, above 50 µM. Further, the concentration for half-maximal inhibition (IC50) is above 50 µM in the assay on NCI-H157, above 50 µM in assay [7], 6.53 µM in [8] and 0.39 µM in assay [9].

Regarding `COc1c(-c2ccc(O)c(O)c2)oc2cc(O)cc(O)c2c1=O` [3-O-METHYLQUERCETIN], the IC50 in assay [1] was above 50 µM; with HeLa it was 6.09 µM; in [2], 9.91 µM; in the assay on HOP-62, 35.5 µM; in assay [3] it was 13.9 µM; in the assay on NCI-H1792, 24.1 µM. The IC50 in assay [4] was 46.8 µM; in assay [5], 23.6 µM; in the assay with NCI-H522, above 50 µM; in the assay on M14 it was above 50 µM; in assay [6], 49.5 µM; in the assay on A549, 8.14 µM. Also, the IC50 was 18.7 µM in the assay on NCI-H157, 38.6 µM in assay [7], above 50 µM in assay [8] and above 50 µM in [9].

With `CCCOc1cc(O)c2c(=O)c(OCCC)c(-c3ccc(OCCC)c(OCCC)c3)oc2c1`, the 50% inhibitory concentration (IC50) (in assay [1]; in the assay with HeLa; in assay [2]; with HOP-62; in assay [3]; in the assay with NCI-H1792) was above 50 µM throughout. Moreover, the 50% inhibitory concentration (IC50) in assay [4] was above 50 µM; in [5], above 50 µM; in the assay on NCI-H522, above 50 µM; in the assay on M14 it was above 50 µM; in assay [6], above 50 µM; with A549, 47.9 µM. The IC50 (in the assay on NCI-H157; in [7]; in assay [8]; in assay [9]) was above 50 µM throughout.

For the compound `O=c1c(O)c(-c2ccc(O)c(O)c2)oc2cc(O)cc(O)c12` [QUERCETIN], the IC50 in assay [1] is 16.9 µM; in the assay on HeLa, 3.56 µM; in assay [2] it was 9.62 µM; with HOP-62, 7.52 µM; in assay [3] it was 16.7 µM; with NCI-H1792, 3.85 µM. Also, the IC50 in [4] was 13.6 µM; in [5], 10.2 µM; in the assay on NCI-H522 it was 5.77 µM; in the assay on M14 it was 12.8 µM; in assay [6], above 50 µM; in the assay on A549, 6.2 µM. In addition, the IC50 was determined as 6 µM in the assay with NCI-H157, 21.7 µM in [7], 23.6 µM in [8] and 4.65 µM in [9].

As to `CCOc1ccc(-c2oc3cc(O)cc(O)c3c(=O)c2O)cc1O`, the IC50 is 2.85 µM in assay [1]; 1.2 µM in the assay on HeLa; 1.03 µM in assay [2]; 4.45 µM with HOP-62; 3.19 µM in assay [3]; 1 µM in the assay with NCI-H1792. Further, the IC50 in [4] was 1.77 µM; in assay [5] it was 1.78 µM; in the assay on NCI-H522 it was 22.1 µM; with M14, 0.94 µM; in assay [6] it was 4.11 µM; with A549, 1.24 µM. The IC50 worked out at 0.67 µM in the assay with NCI-H157, 6.18 µM in assay [7], 1.5 µM in assay [8] and 1.14 µM in assay [9].

`CCCCOc1cc(O)c2c(=O)c(OCCCC)c(-c3ccc(O)c(O)c3)oc2c1`: the half-inhibitory concentration (IC50) in assay [1] was found to be 8.92 µM; in the assay with HeLa, 6.09 µM; in assay [2], 3.05 µM; in the assay on HOP-62 it was 4.68 µM; in assay [3], 4.58 µM; with NCI-H1792, 6.03 µM. The 50% inhibitory concentration (IC50) in assay [4] is 5.05 µM; in assay [5] it was 1.17 µM; with NCI-H522 it was above 50 µM; in the assay with M14 it was 3.47 µM; in [6], 8.75 µM; in the assay with A549 it was 1.13 µM. Also, the IC50 with NCI-H157 turned out to be 5.92 µM; in [7], 11.2 µM; in [8], 5.46 µM; in assay [9], 2.55 µM.

Take `CCOc1cc(O)c2c(=O)c(OCC)c(-c3ccc(O)c(O)c3)oc2c1`: the half-maximal inhibitory concentration (IC50) was 29.1 µM in assay [1]; 0.91 µM with HeLa; 5.25 µM in [2]; 10.6 µM in the assay with HOP-62; 6.26 µM in assay [3]; 2.51 µM in the assay on NCI-H1792. Moreover, the IC50 in [4] is 12.8 µM; in assay [5] it was 10.1 µM; in the assay on NCI-H522, above 50 µM; with M14, 20.3 µM; in assay [6], 17.2 µM; in the assay on A549, 1.19 µM. The half-inhibitory concentration (IC50) was 8.09 µM in the assay with NCI-H157, 20.4 µM in assay [7], 37.4 µM in assay [8] and 15.2 µM in [9].

With `CCOc1cc(O)c2c(=O)c(OCC)c(-c3ccc(OCC)c(O)c3)oc2c1`, the IC50 in [1] was above 50 µM; in the assay on HeLa it was 14.6 µM; in [2] it was 15.6 µM; in the assay with HOP-62, 36.3 µM; in assay [3], 6.66 µM; in the assay on NCI-H1792, above 50 µM. Also, the half-inhibitory concentration (IC50) in assay [4] is 48.5 µM; in assay [5], 4.72 µM; with NCI-H522 it was above 50 µM; in the assay with M14, above 50 µM; in assay [6], above 50 µM; in the assay with A549, 22.6 µM. The 50% inhibitory concentration (IC50) with NCI-H157 was above 50 µM; in assay [7], 18 µM; in assay [8], above 50 µM; in [9], above 50 µM.

For the compound `CCCCOc1cc(O)c2c(=O)c(OCCCC)c(-c3ccc(OCCCC)c(OCCCC)c3)oc2c1`, the half-inhibitory concentration (IC50) (in assay [1]; in the assay with HeLa; in [2]; in the assay on HOP-62; in assay [3]; in the assay on NCI-H1792) was above 50 µM in each case. Moreover, the IC50 in assay [4] is above 50 µM; in assay [5], above 50 µM; in the assay on NCI-H522, above 50 µM; in the assay with M14, above 50 µM; in assay [6], above 50 µM; in the assay with A549, 48.4 µM. In addition, the IC50 (in the assay with NCI-H157; in assay [7]; in assay [8]; in assay [9]) was above 50 µM in each case.
